Assay results as given in publication PMC8449414, “Rational design of ASCT2 inhibitors using an integrated experimental-computational approach” (Proceedings of the National Academy of Sciences of the …, 2021).
“Also recorded” adds a separate entry of the source.

Assays:
hASCT1 = target: T1, hASCT1 (Homo sapiens, UniProt P43007); assay: Electrophysiology: SLC1 specificity, anion current in transfected HEK293 cells; format: cell-based; conditions: for Ki: read-out: Binding affinity Ki
T1 construct: expressed in transfected cells; host or cells: HEK293 (ATCC CRL-11268), transient transfection
T1 sequence (P43007 1-532): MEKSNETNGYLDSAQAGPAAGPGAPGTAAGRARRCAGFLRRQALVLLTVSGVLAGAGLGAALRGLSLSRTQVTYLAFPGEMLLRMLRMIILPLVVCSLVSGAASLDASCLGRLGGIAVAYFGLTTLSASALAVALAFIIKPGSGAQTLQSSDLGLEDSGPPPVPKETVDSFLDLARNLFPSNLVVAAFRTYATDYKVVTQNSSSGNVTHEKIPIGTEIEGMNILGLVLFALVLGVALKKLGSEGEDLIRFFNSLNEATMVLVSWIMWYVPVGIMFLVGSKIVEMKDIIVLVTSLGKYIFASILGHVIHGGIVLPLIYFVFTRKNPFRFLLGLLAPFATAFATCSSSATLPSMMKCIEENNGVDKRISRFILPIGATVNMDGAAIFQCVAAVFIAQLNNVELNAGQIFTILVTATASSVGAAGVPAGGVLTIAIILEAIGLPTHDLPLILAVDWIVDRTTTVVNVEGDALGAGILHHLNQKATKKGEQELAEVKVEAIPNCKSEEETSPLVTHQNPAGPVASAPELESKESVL
Experimental: (§1) We also tested the specificity of Lc-BPE for ASCT2 over other SLC1 family members (ASCT1, EAAT1-3, and EAAT5).
(§2) Fig. S3. SLC-1 specificity of Lc-BPE. (A) Electrophysiological current responses to the application of 100 µM glutamate (red trace) or varying concentrations of Lc-BPE (black, blue and red traces) to rEAAT1-expressing cells HEK293 cells. (B-C) Dose response curves obtained from currents recorded a fter application of Lc-BPE extracellularly to cells transiently expressing hASCT2, rASCT2, hASCT1 (panel B) and rEAAT1, rEAAT2, rEAAT3 and hEAAT5 (panel C) respectively. For hASCT2, rASCT2 and hASCT1, intracellular pipette solution contained 10 mM alanine and 130 mM NaSCN. For rEAAT1, rEAAT2, rEAAT3 and hEAAT5, intracellular solution contained 10 mM glutamate and 130 mM NaSCN. Extracellular solution was the same for all the experiments (140 mM NaCl). The voltage was 0 mV. […]
(§3) Cell culture and transfection
(§4) Human embryonic kidney 293 (HEK293, ATCC CRL -11268) cells were cultured in DMEM media supplemented with 10% (v/v) fetal bovine serum (FBS), 2 mM glutamine, 1% penicillin streptomycin solution, 1 mM sodium pyruvate and non -essential amino acids. Cells were maintained at 370C in a fully humidified atmosphere containing 5% CO2. rASCT2, hASCT2, hASCT1, EAAT1, EAAT2, EAAT3, EAAT5 and YFP complementary DNAs were each used to transiently transfect HEK293 using POLYPLUS Jet-prime transfection reagent. Cells were analyzed using electrophysiological techniques 24-40 hours after transfection.
(§5) Electrophysiological techniques
(§6) Electrophysiological experiments were performed as described previously 1,2. Stock solutions of inhibitor was prepared in dimethyl sulfoxide (DMSO) up to 100 mM.
(§7) Dilutions to working concentrations were made using external buffer. The highest […]
(§8) cells. For rASCT2, hASCT2 and hASCT1, external buffer contained 140 mM NaCl, 2 mM MgCl2, 2 mM CaCl2, and 10 mM HEPES, pH 7.40 while internal pipette solution comprised of 130 mM NaSCN, 2 mM MgCl2, 10 mM EGTA, 10 mM HEPES and 10mM alanine, pH 7.40. For specificity experiments with EAAT1, EAAT2, EAAC1 and EAAT5, internal solution contained 10 mM glutamate instead of alanine. Compounds were applied to HEK293 cells expressing DNA of interest suspended from a current recording electrode in whole cell configuration44 through a rapid solution exchange device described previously45. Cells are immersed in external buffer bath used to dissolve the inhibitors. The open pipette resistance was between 3 and 6 MΩ. Series resistance was not compensated in these experiments due to relatively small currents. Current s traces were recorded using an Adams and List EPC7 amplifier and digitized using a Molecular Devices Digidata A/D converter.
(§9) Data analysis was performed as described previously 46. Linear and nonlinear curve fitting of the experimental data were analyzed using MicroCal Origin software. Linear plots were fitted using the general equation (y = a + bx) obtaining adjusted R 2 and Pearson’s r values. Nonlinear dose–response relationships were fitted with a Michaelis – Menten-like equation to obtain apparent Ki values in the absence of substrate. For competition studies, equation I = I1 + I2 [Inh]/(Ki + [Inh]) was used for fitting, where I1 is the alanine induced current without the inhibitor, and I2 is the maximum current in the presence of saturating inhibitor concentration, [Inh]max 1,2. At least five experiments were performed for each compound. Unless stated otherwise, the error bars in all our graphs represent mean ± SD .
(§10) ASCT2 expression and purification
(§11) Human ASCT2 (hASCT2) was produced in Pichia pastoris X-33 strain (Invitrogen) in fermentor26 and purified using DDM and CHS (Anatrace) and 1 mM L-glutamine (Merck) to maintain protein stability 27. Membranes representing ~1.5 g cells were solubilized in buffer A (25 mM Tris-HCl, pH 7.4, 300 mM NaCl, 10% (vol/vol) glycerol, 1 mM L - glutamine, 1% DDM and 0.1% CHS) for 1 h at 4 °C; ultracentrifuged (30 min, 442,907 × […]

rEAAT2 = target: T2, rEAAT2 (Rattus norvegicus, UniProt P31596); assay: as above; format: cell-based; conditions: 0 mV, 10 mM glutamate and 130 mM NaSCN internal, No current = no outward current up to highest concentration tested (§ 20-50, || 100-400, # 1500-2500 µM); for Ki: read-out: Binding affinity Ki
T2 construct: expressed in transfected cells; host or cells: HEK293 (ATCC CRL-11268), transient transfection
T2 sequence (P31596 whole entry): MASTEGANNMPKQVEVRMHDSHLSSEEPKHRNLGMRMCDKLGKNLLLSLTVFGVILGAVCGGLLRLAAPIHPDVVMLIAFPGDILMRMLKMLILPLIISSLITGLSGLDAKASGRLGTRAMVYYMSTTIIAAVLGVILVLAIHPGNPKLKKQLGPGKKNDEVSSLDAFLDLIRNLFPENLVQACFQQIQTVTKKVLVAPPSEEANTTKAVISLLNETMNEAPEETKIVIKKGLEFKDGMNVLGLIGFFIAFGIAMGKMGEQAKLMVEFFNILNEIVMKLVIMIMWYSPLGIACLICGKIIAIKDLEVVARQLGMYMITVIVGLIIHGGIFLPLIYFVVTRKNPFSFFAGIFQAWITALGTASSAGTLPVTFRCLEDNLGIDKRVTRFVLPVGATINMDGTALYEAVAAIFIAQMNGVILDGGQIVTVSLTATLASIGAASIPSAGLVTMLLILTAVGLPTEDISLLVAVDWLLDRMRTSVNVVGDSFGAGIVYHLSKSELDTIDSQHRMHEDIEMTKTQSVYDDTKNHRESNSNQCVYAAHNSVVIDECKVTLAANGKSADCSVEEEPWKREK
Experimental: as §1, §2, §3, §4, §5, §6, §7, §8, §9, §10, §11

[1] = HEK293 cells, 0 mV, 10 mM alanine and 130 mM NaSCN internal, No current = no outward current up to highest concentration tested (§ 20-50, || 100-400, # 1500-2500 µM)

Row | SMILES | Binding affinity Ki (rEAAT2) | Ki (hASCT1; [1]) [µM] | Ki (rEAAT2) [µM] | Binding affinity Ki (hASCT1; [1]) | apparent affinity of hASCT1 lower than that of rASCT2 (hASCT1; hASCT1 versus rASCT2) [fold]
1 | O=C(O[C@@H]1CN[C@H](C(=O)O)C1)c1ccccc1-c1ccccc1 [ERA-3] | No current | – | – | No current | –
2 | O=C(O[C@@H]1CN[C@H](C(=O)O)C1)c1ccc(-c2ccc(F)cc2)cc1 [ERA-4] | – | 0.9 ± 0.08 | 1.29 ± 0.31 | – | –
3 | O=C(O[C@@H]1CN[C@H](C(=O)O)C1)c1ccc(C(O)c2ccccc2)cc1 (stereo partly shown) [ERA-9] | No current; also recorded: No inhibitory activity was detected | 43 ± 13.4 | – | – | –
4 | N[C@@H](COC(=O)c1ccc(NC(=O)c2ccccc2)cc1)C(=O)O [ERA-21] | – | 11.6 ± 1.75 | 11 ± 1.25 | – | –
5 | N[C@@H](COC(=O)c1ccccc1)C(=O)O [ERA-25] | – | 170 ± 26.7 | 164 ± 47 | – | –
6 | N[C@@H](COC(=O)c1cccnc1)C(=O)O [ERA-28] | No current | 549 ± 306 | – | – | –
7 | O=C(O[C@@H]1CN[C@H](C(=O)O)C1)C(c1ccccc1)c1ccccc1 [ERA-29] | No current | – | – | – | –
8 | O=C(O[C@@H]1CN[C@H](C(=O)O)C1)c1ccc(-c2ccccc2)cc1 [Lc-BPE, L-cis hydroxyproline biphenyl ester] | – | – | – | – | ~3.8

Further lines, with some results ahead:

Row | Binding affinity Ki (rEAAT2) | Ki (hASCT1; [1]) [µM] | Ki (rEAAT2) [µM] | SMILES | Binding affinity Ki (hASCT1; [1]) | apparent affinity of hASCT1 lower than that of rASCT2 (hASCT1; hASCT1 versus rASCT2) [fold]
9 | – | 0.44 ± 0.14 | 0.97 ± 0.1 | O=C(O[C@@H]1CN[C@H](C(=O)O)C1)c1ccc(-c2ccc(C(F)(F)F)cc2)cc1 [ERA-5] | – | –
10 | – | 1.33 ± 0.3 | 1.3 ± 0.13 | Cc1ccccc1-c1ccc(C(=O)O[C@@H]2CN[C@H](C(=O)O)C2)cc1 [ERA-6] | – | –
11 | No current | 8.51 ± 3.87 | – | O=C(Nc1ccc(C(=O)O[C@@H]2CN[C@H](C(=O)O)C2)cc1)c1ccc(C(F)(F)F)cc1 [ERA-11] | – | –
12 | – | 5.71 ± 0.91 | 7.72 ± 1.89 | O=C(O[C@@H]1CN[C@H](C(=O)O)C1)c1ccc(Oc2ccccc2)cc1 [ERA-16] | – | –
13 | No current | > 100 | – | O=C(O[C@@H]1CN[C@H](C(=O)O)C1)c1ccc(OCc2ccccc2)cc1 [ERA-31] | – | –
14 | No current | – | – | O=C(O[C@H]1CN[C@H](C(=O)O)C1)c1ccc(C(=O)c2ccccc2)cc1 [ERA-35] | – | –
